# Test results as given in paper PMC12778052 (Science Advances, 2026).
# How the values were obtained:
# SCaBER cells = experiment: [^68Ga]AJ647 binding after EV preincubation, SCaBER cells; format: cell-based; conditions: EV 60 nM preincubated 30 min, P < 0.0001
# Method: An FITC analog of EV was made using the manufacturer’s recommended protocol (Thermo Fisher Scientific, no. 46409). Briefly, 1 mg of EV was incubated with FITC-NHS ester at a 5:1 molar ratio overnight at 4°C at 0.1 M borate buffer (pH 8.0). Excess unbound FITC-NHS ester was washed off by performing buffer exchange with 1× PBS using three rounds of ultracentrifugation at 4000g for 10 min (3-kDa molecular weight cutoff filter, Amicon, no. UFC900308). The effect of nonradioactive AJ647 on EV binding to Nectin-4 was assessed by incubating HT1376 cells at varying concentrations (5.4 μM to 0.01 nM using a serial dilution) of AJ647 for 30 min at 4°C. Unbound AJ647 was washed off using 3 ml of cold PBS. Cells were incubated with EV-FITC for 30 min at 4°C. Excess EV-FITC was washed off using 3 ml of cold PBS. The mean fluorescence intensity was measured using a flow cytometer, and data are reported as the percentage of 0 nM AJ647. For the effect of EV on [^68Ga]AJ647 binding, EV was used at concentrations of 90 to 0.04 nM using serial dilutions for 30 min at 4°C. Unbound EV was washed off using cold PBS. Then, cells were incubated with 1 μCi of [^68Ga]AJ647 for an additional 30 min. Excess [^68Ga]AJ647 was washed off three times with cold PBS. Samples were read in an automated gamma counter, and data are reported as the percentage of 1-μCi standard counts.
# in vivo = experiment: in vivo; set-up: species or system NSG mice; conditions: mouse; for tissue uptake at 2 min / tissue uptake at 0.25 h / tissue uptake at 1 h / tissue uptake at 2 h / tissue uptake at 3 h / tissue to tissue ratio at 2 min / tissue to tissue ratio at 0.25 h / tissue to tissue ratio at 1 h / tissue to tissue ratio at 2 h / tissue to tissue ratio at 3 h: NSG, iv, 1.85 MBq, total radioactivity
# Method: Mice were injected with cancer cells subcutaneously in 100 μl of PBS (top right flank) for all tumor models. The following cell numbers were used: HT1376 (4 million), UC9 (3 million), UC14 (3 million), RT112 (1.5 million), T24(3 million), and SCaBER (4 million). Mice with tumor volumes of 100 to 200 mm^3 were used for all experiments. A minimum of four mice were used for all biodistribution studies. A minimum of seven mice were used in PD experiment to account for greater variability. To validate imaging studies, ex vivo biodistribution studies were conducted in mice with tumors of 100 to 200 mm^3 in size. […] In all other studies, a 60-min time point was chosen. Selected tissues (blood, skin, muscle, bone, salivary glands, tumor, lungs, heart, liver, pancreas, spleen, kidneys, bladder, and testicles) were collected, weighed, and counted, and their %IA/g values were calculated as described previously ([33]). For EV PD studies, fewer organs were harvested to accommodate a higher number of mice.
compound,measurement,setting,value
enfortumab vedotin [EV],effect on [^68Ga]AJ647 binding,SCaBER cells,significantly reduced [^68Ga]AJ647 binding
"CSCC[C@@H]1NC(=O)[C@@H]2CSCCC(=O)N3CN(CN(C3)C(=O)CCSC[C@H](NC(=O)CCOCCOCCOCCOCCOCCOCCOCCOCCOCCOCCOCCOCCNC(=O)CN3CCN(CC(=O)O)CCN(CC(=O)O)CC3)C(=O)N3CCC[C@H]3C(=O)N[C@@H](Cc3cccc4ccccc34)C(=O)N[C@@H](CC(=O)O)C(=O)N2)C(=O)CCSC[C@@H](C(N)=O)NC(=O)[C@H](Cc2c[nH]c3ccccc23)NC(=O)[C@@H]2C[C@@H](O)CN2C(=O)[C@@H]2CCCN2C(=O)[C@H]([C@@H](C)O)NC(=O)[C@H](CO)NC(=O)[C@H](Cc2c[nH]c3ccccc23)NC(=O)[C@@H](CC(=O)O)NC(=O)[C@H](CCCCNC(=N)N)NC1=O [[^68Ga]AJ647, metal not drawn]",tissue uptake at 2 min,in vivo; Blood,35.8 ± 3.64 %ID/g
same,tissue uptake at 0.25 h,in vivo; Blood,2.94 ± 0.68 %ID/g
same,tissue uptake at 1 h,in vivo; Blood,0.84 ± 0.22 %ID/g
same,tissue uptake at 2 h,in vivo; Blood,0.28 ± 0.06 %ID/g
same,tissue uptake at 3 h,in vivo; Blood,0.32 ± 0.09 %ID/g
same,tissue uptake at 2 min,in vivo; Femur,1.88 ± 0.29 %ID/g
same,tissue uptake at 0.25 h,in vivo; Femur,1.3 ± 0.05 %ID/g
same,tissue uptake at 1 h,in vivo; Femur,0.57 ± 0.18 %ID/g
same,tissue uptake at 2 h,in vivo; Femur,0.27 ± 0.09 %ID/g
same,tissue uptake at 3 h,in vivo; Femur,0.34 ± 0.09 %ID/g
same,tissue uptake at 2 min,in vivo; Heart,11.3 ± 0.51 %ID/g
same,tissue uptake at 0.25 h,in vivo; Heart,1.15 ± 0.34 %ID/g
same,tissue uptake at 1 h,in vivo; Heart,0.43 ± 0.07 %ID/g
same,tissue uptake at 2 h,in vivo; Heart,0.19 ± 0.01 %ID/g
same,tissue uptake at 3 h,in vivo; Heart,0.22 ± 0.01 %ID/g
same,tissue uptake at 2 min,in vivo; Liver,6.45 ± 1.39 %ID/g
same,tissue uptake at 0.25 h,in vivo; Liver,1.19 ± 0.3 %ID/g
same,tissue uptake at 1 h,in vivo; Liver,0.45 ± 0.09 %ID/g
same,tissue uptake at 2 h,in vivo; Liver,0.21 ± 0.07 %ID/g
same,tissue uptake at 3 h,in vivo; Liver,0.23 ± 0.02 %ID/g
same,tissue uptake at 2 min,in vivo; Lung,24.2 ± 7.05 %ID/g
same,tissue uptake at 0.25 h,in vivo; Lung,3.66 ± 0.5 %ID/g
same,tissue uptake at 1 h,in vivo; Lung,1.66 ± 0.25 %ID/g
same,tissue uptake at 2 h,in vivo; Lung,0.81 ± 0.28 %ID/g
same,tissue uptake at 3 h,in vivo; Lung,0.47 ± 0.2 %ID/g
same,tissue uptake at 2 min,in vivo; Muscle,0.96 ± 0.19 %ID/g
same,tissue uptake at 0.25 h,in vivo; Muscle,0.93 ± 0.36 %ID/g
same,tissue uptake at 1 h,in vivo; Muscle,0.38 ± 0.06 %ID/g
same,tissue uptake at 2 h,in vivo; Muscle,0.2 ± 0.11 %ID/g
same,tissue uptake at 3 h,in vivo; Muscle,0.18 ± 0.05 %ID/g
same,tissue uptake at 2 min,in vivo; Salivary glands,6.3 ± 1.24 %ID/g
same,tissue uptake at 0.25 h,in vivo; Salivary glands,4.74 ± 0.94 %ID/g
same,tissue uptake at 1 h,in vivo; Salivary glands,1.48 ± 0.18 %ID/g
same,tissue uptake at 2 h,in vivo; Salivary glands,0.67 ± 0.09 %ID/g
same,tissue uptake at 3 h,in vivo; Salivary glands,0.69 ± 0.07 %ID/g
same,tissue uptake at 2 min,in vivo; Skin,1.13 ± 0.16 %ID/g
same,tissue uptake at 0.25 h,in vivo; Skin,2.74 ± 0.5 %ID/g
same,tissue uptake at 1 h,in vivo; Skin,1.45 ± 0.33 %ID/g
same,tissue uptake at 2 h,in vivo; Skin,0.82 ± 0.22 %ID/g
same,tissue uptake at 3 h,in vivo; Skin,0.66 ± 0.12 %ID/g
same,tissue uptake at 2 min,in vivo; Small intestine,0.85 ± 0.23 %ID/g
same,tissue uptake at 0.25 h,in vivo; Small intestine,0.68 ± 0.23 %ID/g
same,tissue uptake at 1 h,in vivo; Small intestine,0.52 ± 0.17 %ID/g
same,tissue uptake at 2 h,in vivo; Small intestine,0.16 ± 0.02 %ID/g
same,tissue uptake at 2 min,in vivo; Stomach,0.34 ± 0.11 %ID/g
same,tissue uptake at 0.25 h,in vivo; Stomach,0.49 ± 0.36 %ID/g
same,tissue uptake at 2 h,in vivo; Stomach,0.13 ± 0.04 %ID/g
same,tissue uptake at 2 min,in vivo; Thymus,15.7 ± 5.42 %ID/g
same,tissue uptake at 0.25 h,in vivo; Thymus,2.38 ± 0.7 %ID/g
same,tissue uptake at 1 h,in vivo; Thymus,0.71 ± 0.3 %ID/g
same,tissue uptake at 2 h,in vivo; Thymus,0.67 ± 0.21 %ID/g
same,tissue uptake at 3 h,in vivo; Thymus,0.52 ± 0.23 %ID/g
same,tissue uptake at 2 min,in vivo; Tumor,0.72 ± 0.31 %ID/g
same,tissue uptake at 0.25 h,in vivo; Tumor,3.75 ± 0.86 %ID/g
same,tissue uptake at 1 h,in vivo; Tumor,3.72 ± 0.36 %ID/g
same,tissue uptake at 2 h,in vivo; Tumor,2.06 ± 0.49 %ID/g
same,tissue uptake at 3 h,in vivo; Tumor,1.39 ± 0.32 %ID/g
same,tissue to tissue ratio at 2 min,in vivo; Tumor/blood ratio,0.02 ± 0.01
same,tissue to tissue ratio at 0.25 h,in vivo; Tumor/blood ratio,1.41 ± 0.4
same,tissue to tissue ratio at 1 h,in vivo; Tumor/blood ratio,4.6 ± 0.47
same,tissue to tissue ratio at 2 h,in vivo; Tumor/blood ratio,7.27 ± 0.76
same,tissue to tissue ratio at 3 h,in vivo; Tumor/blood ratio,4.58 ± 1.33
same,tissue to tissue ratio at 2 min,in vivo; Tumor/muscle ratio,0.79 ± 0.45
same,tissue to tissue ratio at 0.25 h,in vivo; Tumor/muscle ratio,4.23 ± 0.94
same,tissue to tissue ratio at 1 h,in vivo; Tumor/muscle ratio,10.1 ± 2.19
same,tissue to tissue ratio at 2 h,in vivo; Tumor/muscle ratio,11.3 ± 3.03
same,tissue to tissue ratio at 3 h,in vivo; Tumor/muscle ratio,8.2 ± 4.02
same,tissue uptake at 2 min,"in vivo; male, Adrenals",4.81 ± 2.58 %ID/g
same,tissue uptake at 0.25 h,"in vivo; male, Adrenals",2.6 ± 1.1 %ID/g
same,tissue uptake at 1 h,"in vivo; male, Adrenals",4.45 ± 2.03 %ID/g
same,tissue uptake at 3 h,"in vivo; male, Adrenals",3.8 ± 0.47 %ID/g
same,tissue uptake at 2 min,"in vivo; male, Bladder",1.72 ± 0.24 %ID/g
same,tissue uptake at 0.25 h,"in vivo; male, Bladder",24.1 ± 15.3 %ID/g
same,tissue uptake at 1 h,"in vivo; male, Bladder",39.5 ± 21.3 %ID/g
same,tissue uptake at 2 h,"in vivo; male, Bladder",22.6 ± 6.46 %ID/g
same,tissue uptake at 3 h,"in vivo; male, Bladder",58 ± 24.8 %ID/g
same,tissue uptake at 2 min,"in vivo; male, Brain",0.54 ± 0.15 %ID/g
same,tissue uptake at 0.25 h,"in vivo; male, Brain",0.1 ± 0.02 %ID/g
same,tissue uptake at 1 h,"in vivo; male, Brain",0.06 ± 0.01 %ID/g
same,tissue uptake at 2 h,"in vivo; male, Brain",0.06 ± 0.02 %ID/g
same,tissue uptake at 3 h,"in vivo; male, Brain",0.06 ± 0.02 %ID/g
same,tissue uptake at 0.25 h,"in vivo; male, Kidney",20.4 ± 3.7 %ID/g
same,tissue uptake at 1 h,"in vivo; male, Kidney",30.8 ± 4.37 %ID/g
same,tissue uptake at 2 h,"in vivo; male, Kidney",17.3 ± 12.9 %ID/g
same,tissue uptake at 2 min,"in vivo; male, Large intestine",0.25 ± 0.16 %ID/g
same,tissue uptake at 0.25 h,"in vivo; male, Large intestine",0.41 ± 0.11 %ID/g
same,tissue uptake at 3 h,"in vivo; male, Large intestine",0.18 ± 0.05 %ID/g
same,tissue uptake at 2 min,"in vivo; male, Pancreas",2.39 ± 0.72 %ID/g
same,tissue uptake at 0.25 h,"in vivo; male, Pancreas",2.5 ± 0.38 %ID/g
same,tissue uptake at 1 h,"in vivo; male, Pancreas",0.93 ± 0.03 %ID/g
same,tissue uptake at 2 h,"in vivo; male, Pancreas",0.3 ± 0.06 %ID/g
same,tissue uptake at 3 h,"in vivo; male, Pancreas",0.42 ± 0.02 %ID/g
same,tissue uptake at 2 min,"in vivo; male, Spleen",1.04 ± 0.23 %ID/g
same,tissue uptake at 0.25 h,"in vivo; male, Spleen",4.32 ± 1.31 %ID/g
same,tissue uptake at 1 h,"in vivo; male, Spleen",1.75 ± 0.21 %ID/g
same,tissue uptake at 2 h,"in vivo; male, Spleen",0.84 ± 0.17 %ID/g
same,tissue uptake at 3 h,"in vivo; male, Spleen",0.83 ± 0.07 %ID/g
same,tissue uptake at 2 min,"in vivo; male, Testicles",0.79 ± 0.07 %ID/g
same,tissue uptake at 0.25 h,"in vivo; male, Testicles",0.86 ± 0.12 %ID/g
same,tissue uptake at 1 h,"in vivo; male, Testicles",0.74 ± 0.2 %ID/g
same,tissue uptake at 2 h,"in vivo; male, Testicles",0.52 ± 0.17 %ID/g
same,tissue uptake at 3 h,"in vivo; male, Testicles",0.93 ± 0.5 %ID/g
same,blood pool activity cleared,in vivo,more than 90%
